This is an account of results in publication PMC9770967, “Native holdup (nHU) to measure binding affinities from cell extracts” (Science Advances, 2022).

The target of one experiment is SCRIB PDZ1. Particulars: fragmentomic, isolated PDZ domain; cited from earlier work. An excerpt: Supplement sciadv.ade3828_table_s1.zip/sciadv.ade3828_table_s1.xlsx, sheet "nHU-WB_SP" | column: Domain-motif fragmentomic affinities (ProfAff)
The next experiment has as its target SCRIB PDZ2. Conditions: fragmentomic, isolated PDZ domain; cited from earlier work. An excerpt:
(§1) Supplement sciadv.ade3828_table_s1.zip/sciadv.ade3828_table_s1.xlsx, sheet "nHU-WB_SP"

Another experiment concerns the target SCRIB PDZ3. Particulars: fragmentomic, isolated PDZ domain; cited from earlier work.
Excerpt: as §1

Experiment [1] addresses isolated PDZ domain of SNX27. Particulars: 10-mer PBM peptide vs isolated PDZ domain, holdup; cited from earlier work.
Experiment [2] has as its target T1, endogenous full-length SNX27 (Homo sapiens, UniProt Q96L92).
T1 construct: Supernatant fractions were probed with specific antibodies against endogenous full-length PDZ domain–containing proteins SCRIB and SNX27; endogenous in cells; host or cells: Jurkat E6.1 total cell extract
The experiment can be described thus: Single-point nHU-WB, 12 PBM peptide baits, Jurkat extract. Format: binding.

The target in experiment [3] is endogenous full-length SCRIB (Homo sapiens, UniProt Q14160). The description is as above. Format: binding.

Like-named read-outs stand apart in the source and are kept apart here. *1 amine or outer side, *2 acyl side, *3 side chain or, on linkers, in order; H or OH if unused. Where a SMILES comes first, the peptide text is derived from it. The star is where a group is joined. X1 = O=C(CCCC[C@@H]1SC[C@@H]2NC(=O)N[C@@H]21)NCCCOCCOCCOCCCN*; Suc = O=C(CCC(=O)[*:2])[*:1]

endogenous full-length SCRIB, sequence (Q14160 whole entry): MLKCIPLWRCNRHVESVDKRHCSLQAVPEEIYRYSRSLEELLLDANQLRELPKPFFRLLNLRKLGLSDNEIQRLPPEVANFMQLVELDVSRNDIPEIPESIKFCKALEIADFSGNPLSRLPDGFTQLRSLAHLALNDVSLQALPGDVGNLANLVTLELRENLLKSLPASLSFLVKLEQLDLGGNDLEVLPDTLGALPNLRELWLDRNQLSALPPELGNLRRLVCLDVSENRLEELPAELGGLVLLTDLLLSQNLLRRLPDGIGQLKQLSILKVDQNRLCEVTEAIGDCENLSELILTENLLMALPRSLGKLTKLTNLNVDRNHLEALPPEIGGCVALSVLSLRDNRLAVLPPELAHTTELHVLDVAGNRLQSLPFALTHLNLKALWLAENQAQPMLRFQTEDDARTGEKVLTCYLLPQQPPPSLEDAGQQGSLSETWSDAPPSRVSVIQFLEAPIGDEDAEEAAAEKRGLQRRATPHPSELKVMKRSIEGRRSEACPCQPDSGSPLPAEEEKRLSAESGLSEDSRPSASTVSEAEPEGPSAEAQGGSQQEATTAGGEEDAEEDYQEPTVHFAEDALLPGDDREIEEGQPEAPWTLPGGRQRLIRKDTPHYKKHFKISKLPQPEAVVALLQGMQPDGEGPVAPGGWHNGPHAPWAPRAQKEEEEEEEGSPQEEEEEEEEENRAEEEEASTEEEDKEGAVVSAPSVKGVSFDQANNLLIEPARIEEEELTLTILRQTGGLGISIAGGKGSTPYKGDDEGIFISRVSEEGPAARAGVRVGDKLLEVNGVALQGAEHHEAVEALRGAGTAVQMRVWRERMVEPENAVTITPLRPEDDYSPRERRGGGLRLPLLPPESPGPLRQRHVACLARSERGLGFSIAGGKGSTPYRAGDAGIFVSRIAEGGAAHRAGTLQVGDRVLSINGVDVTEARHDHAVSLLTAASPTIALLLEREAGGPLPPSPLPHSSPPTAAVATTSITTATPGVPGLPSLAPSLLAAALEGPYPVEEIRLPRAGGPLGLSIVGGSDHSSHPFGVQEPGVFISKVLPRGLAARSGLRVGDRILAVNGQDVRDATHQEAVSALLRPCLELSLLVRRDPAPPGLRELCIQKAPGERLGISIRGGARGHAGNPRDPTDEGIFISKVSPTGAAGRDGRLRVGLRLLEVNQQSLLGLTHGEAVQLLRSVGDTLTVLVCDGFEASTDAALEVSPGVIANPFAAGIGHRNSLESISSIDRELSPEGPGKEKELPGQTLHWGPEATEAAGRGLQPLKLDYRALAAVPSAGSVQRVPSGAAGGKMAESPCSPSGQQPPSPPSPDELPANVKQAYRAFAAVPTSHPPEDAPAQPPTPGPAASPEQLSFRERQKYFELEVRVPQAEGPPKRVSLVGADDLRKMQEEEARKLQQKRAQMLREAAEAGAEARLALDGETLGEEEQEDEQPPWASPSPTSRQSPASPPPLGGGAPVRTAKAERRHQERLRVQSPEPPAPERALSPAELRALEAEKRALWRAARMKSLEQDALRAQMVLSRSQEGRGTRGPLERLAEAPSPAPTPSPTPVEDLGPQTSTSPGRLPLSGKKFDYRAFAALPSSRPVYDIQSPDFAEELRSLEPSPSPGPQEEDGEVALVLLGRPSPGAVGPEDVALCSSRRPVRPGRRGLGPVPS

As for `CC(C)C[C@H](NC(=O)[C@H](CO)NC(=O)[C@@H](NC(=O)[C@H](CCC(=O)O)NC(=O)[C@H](CCC(=O)O)NC(=O)[C@H](CS)NC(=O)[C@@H](NC(=O)[C@H](CCCNC(=N)N)NC(=O)[C@@H](NC(=O)[C@@H]1CCCN1C(=O)CCC(=O)NCCCOCCOCCOCCCNC(=O)CCCC[C@@H]1SC[C@@H]2NC(=O)N[C@@H]21)C(C)C)C(C)C)[C@@H](C)O)C(=O)O` [OTULIN] ({X1-Suc}-PVRVCEETSL-OH; C-terminus assumed), the pKd_PDZ1 on SCRIB PDZ1 is 5.44. Moreover, the pKd_PDZ2 on SCRIB PDZ2 was 4.70. Moreover, the pKd_PDZ3 at SCRIB PDZ3 is 5.64. Also, the “pKd (fragmentomic affinity)” value in experiment [1] is 5.58.

Take `CSCC[C@H](NC(=O)[C@@H](NC(=O)[C@H](CO)NC(=O)[C@H](CCC(=O)O)NC(=O)[C@H](CCCCN)NC(=O)[C@H](CCC(=O)O)NC(=O)[C@H](CO)NC(=O)[C@H](C)NC(=O)[C@@H](NC(=O)[C@@H](NC(=O)CCC(=O)NCCCOCCOCCOCCCNC(=O)CCCC[C@@H]1SC[C@@H]2NC(=O)N[C@@H]21)[C@@H](C)O)C(C)C)C(C)C)C(=O)O` [SLC1A5] ({X1-Suc}-TVASEKESVM-OH; C-terminus assumed): the Kd in experiment [2] was 8.91 µM; in experiment [3] it was 112 µM. For the same compound, the pKd_PDZ1 on SCRIB PDZ1 is on record as 5.20. Moreover, the pKd_PDZ3 on SCRIB PDZ3 is on record as 3.97. Also, in experiment [1], the “pKd (fragmentomic affinity)” value is 5.29.

Regarding `CC(C)C[C@H](NC(=O)[C@@H]1CCCN1C(=O)[C@H](Cc1c[nH]cn1)NC(=O)[C@H](Cc1ccccc1)NC(=O)CCC(=O)NCCCOCCOCCOCCCNC(=O)CCCC[C@@H]1SC[C@@H]2NC(=O)N[C@@H]21)C(=O)NCC(=O)N[C@@H](C)C(=O)N[C@@H](CC(=O)O)C(=O)N[C@@H](CO)C(=O)N[C@@H](CCC(N)=O)C(=O)N[C@H](C(=O)O)C(C)C` [SLC2A1] ({X1-Suc}-FHPLGADSQV-OH; C-terminus assumed), the Kd in experiment [2] was 25.1 µM; in experiment [3], 69.2 µM. Also, on SCRIB PDZ1, the pKd_PDZ1 is 4.02. The pKd_PDZ3 at SCRIB PDZ3 is recorded as 3.58. The “pKd (fragmentomic affinity)” value in experiment [1] was 4.05.

For the compound `CC(C)C[C@H](NC(=O)[C@H](CO)NC(=O)[C@@H](NC(=O)[C@H](CCC(=O)O)NC(=O)[C@H](CC(C)C)NC(=O)[C@H](CO)NC(=O)[C@H](Cc1c[nH]cn1)NC(=O)[C@H](CC(C)C)NC(=O)[C@@H]1CCCN1C(=O)[C@H](CO)NC(=O)CCC(=O)NCCCOCCOCCOCCCNC(=O)CCCC[C@@H]1SC[C@@H]2NC(=O)N[C@@H]21)[C@@H](C)O)C(=O)O` [ATP2B1] ({X1-Suc}-SPLHSLETSL-OH; C-terminus assumed), the pKd_PDZ1 at SCRIB PDZ1 is reported as 5.36. Also, at SCRIB PDZ2, the pKd_PDZ2 was 4.27. Also, on SCRIB PDZ3, the pKd_PDZ3 is 5.54. For the same compound, in experiment [1], the “pKd (fragmentomic affinity)” value was 5.48.

Turning to `CC(C)[C@H](NC(=O)CN)C(=O)N[C@@H](CCC(=O)O)C(=O)NCC(=O)N[C@@H](CO)C(=O)N[C@@H](CC(=O)O)C(=O)N[C@H](C(=O)N[C@H](C(=O)N[C@@H](CCC(=O)O)C(=O)N[C@@H](C)C(=O)O)[C@@H](C)O)[C@@H](C)O` [MAP4] (H-GVEGSDTTEA-OH), the Kd was 1.51 µM in experiment [2] (apparent, Eq. 2, ~10 μM bait, Jurkat extract, mean of n = 3, read-out: av.pKapp (converted)) and 1.17 µM in experiment [3] (apparent, Eq. 2, ~10 μM bait, Jurkat extract, mean of replicates with a value, read-out: av.pKapp (converted)).

Turning to `CC(C)[C@H](NC(=O)[C@@H]1CCCN1C(=O)[C@H](CO)NC(=O)[C@H](CCC(=O)O)NC(=O)[C@H](CCC(=O)O)NC(=O)[C@H](CCC(=O)O)NC(=O)[C@H](CCCCN)NC(=O)[C@@H]1CCCN1C(=O)CNC(=O)CNC(=O)CCC(=O)NCCCOCCOCCOCCCNC(=O)CCCC[C@@H]1SC[C@@H]2NC(=O)N[C@@H]21)C(=O)O` [SLC16A1] ({X1-Suc}-GGPKEEESPV-OH; C-terminus assumed), the Kd in experiment [2] is 6.17 µM; in experiment [3], 69.2 µM. The pKd_PDZ1 on SCRIB PDZ1 was 5.18. In addition, in experiment [1], the “pKd (fragmentomic affinity)” value is listed as 5.27.

In the case of `CC(C)C[C@H](NC(=O)[C@H](CC(N)=O)NC(=O)[C@@H](NC(=O)[C@H](CCC(=O)O)NC(=O)[C@H](CC(=O)O)NC(=O)[C@H](Cc1c[nH]c2ccccc12)NC(=O)[C@H](C)NC(=O)[C@@H]1CCCN1C(=O)[C@H](CC(=O)O)NC(=O)[C@H](CC(N)=O)NC(=O)CCC(=O)NCCCOCCOCCOCCCNC(=O)CCCC[C@@H]1SC[C@@H]2NC(=O)N[C@@H]21)[C@@H](C)O)C(=O)O` [ARHGEF7] ({X1-Suc}-NDPAWDETNL-OH; C-terminus assumed), the Kd was 1.51 µM in experiment [2] and 1.35 µM in experiment [3]. In addition, at SCRIB PDZ1, the pKd_PDZ1 is 5.50. Also, on SCRIB PDZ2, the pKd_PDZ2 is reported as 4.68. In addition, on SCRIB PDZ3, the pKd_PDZ3 is on record as 5.08. Further, the “pKd (fragmentomic affinity)” value in experiment [1] is on record as 5.66.

With `CC[C@H](C)[C@H](NC(=O)CCC(=O)NCCCOCCOCCOCCCNC(=O)CCCC[C@@H]1SC[C@@H]2NC(=O)N[C@@H]21)C(=O)N[C@@H](CC(=O)O)C(=O)N[C@@H](CC(N)=O)C(=O)N[C@@H](CC(=O)O)C(=O)N[C@H](C(=O)N[C@@H](CCC(=O)O)C(=O)N[C@@H](CO)C(=O)N[C@H](C(=O)N[C@@H](C)C(=O)N[C@@H](CC(C)C)C(=O)O)[C@@H](C)O)[C@@H](C)O` [ARHGAP17] ({X1-Suc}-IDNDTESTAL-OH; C-terminus assumed), the pKd_PDZ1 on SCRIB PDZ1 was 4.91. Moreover, the pKd_PDZ2 at SCRIB PDZ2 is on record as 3.61. In addition, the pKd_PDZ3 on SCRIB PDZ3 is given as 4.57. Further, the “pKd (fragmentomic affinity)” value in experiment [1] was 4.97.
